According to paper PMC3930709, “Selective Activation of hTRPV1 by N-Geranyl Cyclopropylcarboxamide, an Amiloride-Insensitive Salt Taste Enhancer” (PLoS ONE, 2014):

How the values were obtained:
Type in all cases: cell-based
hTRPA1 = target: T1, hTRPA1 (Homo sapiens, UniProt O75762); experiment: Whole-cell patch clamp recording, cells stably expressing hTRPA1; conditions: AITC 100 µM; NGCC 10^3 µM; holding -80 mV
T1 construct: expressed in transfected cells
Procedure: Flp-In 293 cell lines stably expressing hTRPA1constructed as previously reported was a gift from the professor Takumi Misaka at University of Tokyo. The hTRPA1-expressing cells were cultured in DMEM containing 10% FBS and 0.02% hygromycin B (Invitrogen). Flp-In 293 cell lines were maintained in DMEM containing 10% FBS. All cells were incubated at 37°C in a humidified atmosphere of 5% CO2.
(§1) The whole-cell configuration was used to voltage-clamp at room temperature (22–25°C). Electrodes pulled from glass micropipette capillaries (Sutter Instrument) had resistances of 2–2.5 MΩ, and series resistance errors were compensated >60%. Fast and slow capacitances were compensated before the application of test-pulse. Recordings were performed using aHEKAEPC-10 amplifier with pulse software (HEKA Elektronik). The pipette solution contained: 140 mM KCl, 5 mM MgCl2, 10 mM HEPES, 0.1 mM 1,2-bis(2-aminophenoxy) ethane N,N,N’,N’-tetraacetic acid(BAPTA), 3 mM Na2ATP, and 0.1 mM Na3GTP, adjusted to pH 7.4 with KOH. The external Ringer’s solution used for recording TRPV1 and TRPA1 currents contained: 150 mM NaCl, 5 mM KCl, 1 mM MgCl2, 2 mM EGTA, 10 mM Glucose, and 10 mM HEPES, adjusted to pH 7.4 with NaOH. TRPV1 and TRPA1 currents were recorded by holding the cell at −80 mV. The external Ringer’s solution used for recording ASIC current contained: 160 mM NaCl, 5 mM KCl, 1 mM MgCl2, 2 mM CaCl2, and 10 mM HEPES, adjusted to pH 7.4 with tetramethylammonium hydroxide. For acidic solution of pH 6.0, HEPES was replaced with MES. ASIC currents were recorded by holding the cell at −70 mV. Reagents were obtained as follows: BAPTA, Na2ATP, Na3GTP, EGTA, and tetramethylammonium hydroxide (Sigma), HEPES (Calbiochem), MES (Alfa Aesar), and other chemicals (Merck).

αβγ hENaC = target: T2, αβγ hENaC (Homo sapiens, UniProt P37088+P51168+P51170); experiment: Membrane potential assay (FMP dye) on αβγ hENaC-expressing cells; conditions: continuous presence of Bz (0.01 µM)
T2 construct: GFP; host or cells: HEK293T
T2 sequence (P37088 1-669): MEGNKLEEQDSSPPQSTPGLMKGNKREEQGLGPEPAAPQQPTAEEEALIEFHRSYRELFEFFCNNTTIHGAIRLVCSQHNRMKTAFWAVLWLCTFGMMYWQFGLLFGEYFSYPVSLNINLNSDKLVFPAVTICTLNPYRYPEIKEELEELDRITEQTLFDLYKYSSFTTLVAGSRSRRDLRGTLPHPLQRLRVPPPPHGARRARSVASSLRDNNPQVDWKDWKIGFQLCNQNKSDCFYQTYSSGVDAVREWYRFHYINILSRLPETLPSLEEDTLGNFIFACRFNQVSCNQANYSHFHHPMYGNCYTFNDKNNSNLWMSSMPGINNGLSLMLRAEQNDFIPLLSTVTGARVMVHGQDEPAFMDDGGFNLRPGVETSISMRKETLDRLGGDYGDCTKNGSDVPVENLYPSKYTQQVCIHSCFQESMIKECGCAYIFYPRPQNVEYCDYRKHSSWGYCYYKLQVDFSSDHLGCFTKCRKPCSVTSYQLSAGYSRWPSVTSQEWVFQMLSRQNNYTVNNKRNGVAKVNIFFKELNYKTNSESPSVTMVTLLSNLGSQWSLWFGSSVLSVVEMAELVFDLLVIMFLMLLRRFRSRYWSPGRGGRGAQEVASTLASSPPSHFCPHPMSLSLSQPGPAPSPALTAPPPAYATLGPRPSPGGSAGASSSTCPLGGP
T2 sequence (P51168 1-640): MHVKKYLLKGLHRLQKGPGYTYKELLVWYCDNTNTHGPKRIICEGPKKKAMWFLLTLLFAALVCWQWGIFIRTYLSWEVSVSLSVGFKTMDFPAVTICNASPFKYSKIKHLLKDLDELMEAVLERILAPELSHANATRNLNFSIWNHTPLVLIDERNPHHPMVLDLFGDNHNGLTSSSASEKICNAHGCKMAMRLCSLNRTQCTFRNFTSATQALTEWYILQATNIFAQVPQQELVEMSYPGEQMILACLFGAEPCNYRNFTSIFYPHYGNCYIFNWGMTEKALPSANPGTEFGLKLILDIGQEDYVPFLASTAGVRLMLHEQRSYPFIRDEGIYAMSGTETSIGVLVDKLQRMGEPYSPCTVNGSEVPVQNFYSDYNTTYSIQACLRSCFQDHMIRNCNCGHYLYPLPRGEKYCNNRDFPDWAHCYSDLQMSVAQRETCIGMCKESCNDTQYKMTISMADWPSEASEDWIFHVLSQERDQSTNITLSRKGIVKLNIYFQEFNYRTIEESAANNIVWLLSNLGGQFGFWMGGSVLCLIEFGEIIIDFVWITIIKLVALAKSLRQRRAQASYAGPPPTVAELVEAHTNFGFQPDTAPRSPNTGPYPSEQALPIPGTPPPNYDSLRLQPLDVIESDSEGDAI
T2 sequence (P51170 1-649): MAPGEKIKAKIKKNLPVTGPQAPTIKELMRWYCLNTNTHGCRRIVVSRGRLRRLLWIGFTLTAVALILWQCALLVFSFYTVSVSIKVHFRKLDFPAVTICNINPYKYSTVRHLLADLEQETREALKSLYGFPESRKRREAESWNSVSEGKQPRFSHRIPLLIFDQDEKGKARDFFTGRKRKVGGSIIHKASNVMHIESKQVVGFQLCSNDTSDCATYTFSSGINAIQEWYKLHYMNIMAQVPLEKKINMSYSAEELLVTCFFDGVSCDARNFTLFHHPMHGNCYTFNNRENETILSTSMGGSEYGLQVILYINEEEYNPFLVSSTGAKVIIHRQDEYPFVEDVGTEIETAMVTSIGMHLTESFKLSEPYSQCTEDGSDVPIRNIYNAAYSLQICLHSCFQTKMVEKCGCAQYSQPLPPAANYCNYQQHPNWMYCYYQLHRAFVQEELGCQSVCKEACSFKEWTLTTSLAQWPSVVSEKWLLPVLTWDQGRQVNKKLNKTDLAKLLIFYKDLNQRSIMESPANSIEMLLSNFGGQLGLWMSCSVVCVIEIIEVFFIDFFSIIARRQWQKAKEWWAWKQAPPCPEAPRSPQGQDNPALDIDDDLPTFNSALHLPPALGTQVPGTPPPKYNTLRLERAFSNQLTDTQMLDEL
Procedure: The α, β, and γ hENaC subunits were cloned from OriGene (Rockville, MD; GenBank accession number […] for SCNN1A, NM_000336 for SCNN1B and NM_001039 for SCNN1G). α, GFP-tagged β, and γ hENaC were cloned into a CMV promoter-based vector and expressed constitutively. The HEK293T cells were seeded onto a 35 mm dish and transfected with α, β, and γ hENaC expression plasmid using Lipofectamine 2000 (Invitrogen). Then, transfected cells were seeded onto 96-well black-wall plate for 18–26 h prior to their use in an experiment.
hENaC-expressing cells were characterized using FLIPER Membrane Potential (FMP) Assay Kit (Molecular Devices Corporation, Sunnyvale, CA, USA). In this assay, changes in the membrane potential were quantified via fluorescence change caused by FMP dye. The hENaC-expressing cells were washed with assay buffer (containing: 130 mM NaCl, 10 mM glucose, 5 mM KCl, 2 mM CaCl2, 1.2 mM MgCl2, and 10 mM HEPES, pH adjusted to 7.4 with NaOH) and subsequently, FMP blue-dye in assay buffer was loaded into the cells at room temperature for 30 min. After dye treatment, S3969 (0.03−10 µM), an ENaC agonist, S3969+Bz (ENaC antagonist, 0.01 µM), or NGCC (0.01−10 µM) was treated to hENaC-expressing cells. The plate was assayed in a FlexStation III plate reader (Molecular devices Corporation) by excitation at 530 nm and measuring the emission at 560 nm.

hTRPV1 [1] = target: T3, hTRPV1 (Homo sapiens, UniProt Q8NER1); experiment: Measurement of Ca2+ influx (Fluo-4 AM, FlexStation III) in hTRPV1-expressing cells; conditions: RR 30 µM or CPZ 1 µM added with agonist
T3 construct: expressed in transfected cells; host or cells: HEK293T
T3 sequence (Q8NER1 whole entry): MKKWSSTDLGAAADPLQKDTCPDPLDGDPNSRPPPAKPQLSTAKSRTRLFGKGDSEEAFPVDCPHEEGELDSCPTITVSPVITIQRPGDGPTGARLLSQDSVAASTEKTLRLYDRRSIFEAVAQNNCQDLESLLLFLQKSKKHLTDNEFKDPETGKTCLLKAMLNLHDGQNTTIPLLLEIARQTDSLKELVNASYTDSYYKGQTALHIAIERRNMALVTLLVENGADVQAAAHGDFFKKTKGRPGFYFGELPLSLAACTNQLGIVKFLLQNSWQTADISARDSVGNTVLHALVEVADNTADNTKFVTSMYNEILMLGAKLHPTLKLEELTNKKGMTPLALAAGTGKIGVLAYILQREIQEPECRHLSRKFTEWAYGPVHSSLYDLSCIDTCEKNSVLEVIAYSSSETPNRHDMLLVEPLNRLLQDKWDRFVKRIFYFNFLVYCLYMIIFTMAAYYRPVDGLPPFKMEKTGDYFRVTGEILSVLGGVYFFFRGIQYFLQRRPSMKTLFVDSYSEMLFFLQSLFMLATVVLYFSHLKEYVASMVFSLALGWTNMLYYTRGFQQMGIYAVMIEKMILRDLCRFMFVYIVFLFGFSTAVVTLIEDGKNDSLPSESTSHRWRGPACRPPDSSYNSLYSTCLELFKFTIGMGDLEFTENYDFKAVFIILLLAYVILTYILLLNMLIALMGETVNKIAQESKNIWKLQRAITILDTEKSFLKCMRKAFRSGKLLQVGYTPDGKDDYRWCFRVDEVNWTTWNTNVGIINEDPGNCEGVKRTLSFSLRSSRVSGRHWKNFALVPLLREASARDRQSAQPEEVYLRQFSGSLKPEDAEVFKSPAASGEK
Procedure: hTRPV1 was constructed by amplification of the hTRPV1 region (NCBI accession number: NG_029716.1) and cloned into pEAK10 vector (Edge Biosystems, Gaithersburg, MD, USA). The hTRPV1 construct was amplified by PCR and the nucleotide sequence of the hTRPV1 gene was confirmed by sequencing with an ABI 3130 DNA genetic analyzer (Applied Biosystems, Foster City, CA, USA). […] After 6 h, transfected cells were seeded onto 96-well black-wall plate (BD Falcon Labware, Franklin Lakes, NJ, USA) for 18–26 h prior to their use in an experiment. The ligand-induced changes on cytosolic Ca^2+ level were monitored by a FlexStation III microplate reader (Molecular Devices). Fluo-4 AM (5 µM, Molecular Probes, Eugene, OR, USA) in assay buffer was loaded to the cells in 96-well black-wall plates for 30 min at 27°C. After dye treatment, each chemical was added to each well at 17 s and changes on intracellular Ca^2+ level were monitored by relative fluorescence units (ΔRFU, Ex = 485 nm; Em = 516 nm) for 120 s. […] The responses from at least three wells receiving the same stimulus were averaged. Plots of amplitude versus concentration were fitted using the Hill equation.

hTRPV1 [2] = target: T3, hTRPV1; experiment: Ca2+ imaging (Fura-2 AM) of hTRPV1-expressing HEK293T cells; conditions: NGCC 30 µM; RR 30 µM, CPZ 1 µM
Procedure: hTRPV1 was constructed by amplification of the hTRPV1 region (NCBI accession number: NG_029716.1) and cloned into pEAK10 vector (Edge Biosystems, Gaithersburg, MD, USA). The hTRPV1 construct was amplified by PCR and the nucleotide sequence of the hTRPV1 gene was confirmed by sequencing with an ABI 3130 DNA genetic analyzer (Applied Biosystems, Foster City, CA, USA). […] After 6 h, transfected cells were seeded onto 96-well black-wall plate (BD Falcon Labware, Franklin Lakes, NJ, USA) for 18-26 h prior to their use in an experiment. Mock-transfected HEK293T cells, hTRPV1-expressing HEK293T cells, non-hTRPA1-expressing Flp-In 293 cells, and hTRPA1-expressing Flp-In 293 cells grown in 96-well black-wall plates were rinsed with assay buffer (130 mM NaCl, 10 mM glucose, 5 mM KCl, 2 […]2, 1.2 mM MgCl2, and 10 mM HEPES, pH 7.4) and loaded with 5 μM Fura-2 AM (Invitrogen) for 30 min at 27°C. […] The fluorescence intensities of Fura-2 excited at 340 and 380 nm were simultaneously measured at 510 nm using a computer-controlled filter changer (Lambda DG4; Sutter, San Rafael, CA, USA), an Andor Luca CCD camera (Andor Technology, Belfast, UK), and an inverted fluorescence microscope (IX-71; Olympus, Tokyo, Japan). Intracellular calcium images were recorded every 3-s for 60-s and analyzed using MetaFluor software (Molecular Devices, Sunnyvale, CA, USA).

hTRPV1 [3] = target: T3, hTRPV1; experiment: Whole-cell patch clamp recording, hTRPV1-expressing HEK293T cells
Procedure: Mouse ASIC1a (mASIC1a) was a kind gift from John A. Wemmie (University of Iowa, IA, USA). For electrophysiological experiments, HEK293T cells were cultured in DMEM supplemented with 10% FBS and 0.2% penicillin/streptomycin and transiently transfected using Lipofectamine 2000 (Invitrogen) with various cDNAs. For TRPV1 channel expression, cells were transfected with hTRPV1, for ASIC1a homomeric channel expression, cells were transfected with mASIC1a. When needed, 0.1–0.2 µg of cDNA encoding tetrameric red fluorescence protein (DsRed) was co-transfected with the cDNA as a marker for successfully transfected cells. For non-transfected cells, cells were transfected with 0.1–0.2 µg of cDNA encoding DsRed alone. The next day, cells were plated onto poly-L-lysine-coated coverslip chips, and fluorescent cells were studied within 1–2 days.
as §1

[4] = first pulse normalized to 1.0, n = 4

T1 sequence (O75762 whole entry): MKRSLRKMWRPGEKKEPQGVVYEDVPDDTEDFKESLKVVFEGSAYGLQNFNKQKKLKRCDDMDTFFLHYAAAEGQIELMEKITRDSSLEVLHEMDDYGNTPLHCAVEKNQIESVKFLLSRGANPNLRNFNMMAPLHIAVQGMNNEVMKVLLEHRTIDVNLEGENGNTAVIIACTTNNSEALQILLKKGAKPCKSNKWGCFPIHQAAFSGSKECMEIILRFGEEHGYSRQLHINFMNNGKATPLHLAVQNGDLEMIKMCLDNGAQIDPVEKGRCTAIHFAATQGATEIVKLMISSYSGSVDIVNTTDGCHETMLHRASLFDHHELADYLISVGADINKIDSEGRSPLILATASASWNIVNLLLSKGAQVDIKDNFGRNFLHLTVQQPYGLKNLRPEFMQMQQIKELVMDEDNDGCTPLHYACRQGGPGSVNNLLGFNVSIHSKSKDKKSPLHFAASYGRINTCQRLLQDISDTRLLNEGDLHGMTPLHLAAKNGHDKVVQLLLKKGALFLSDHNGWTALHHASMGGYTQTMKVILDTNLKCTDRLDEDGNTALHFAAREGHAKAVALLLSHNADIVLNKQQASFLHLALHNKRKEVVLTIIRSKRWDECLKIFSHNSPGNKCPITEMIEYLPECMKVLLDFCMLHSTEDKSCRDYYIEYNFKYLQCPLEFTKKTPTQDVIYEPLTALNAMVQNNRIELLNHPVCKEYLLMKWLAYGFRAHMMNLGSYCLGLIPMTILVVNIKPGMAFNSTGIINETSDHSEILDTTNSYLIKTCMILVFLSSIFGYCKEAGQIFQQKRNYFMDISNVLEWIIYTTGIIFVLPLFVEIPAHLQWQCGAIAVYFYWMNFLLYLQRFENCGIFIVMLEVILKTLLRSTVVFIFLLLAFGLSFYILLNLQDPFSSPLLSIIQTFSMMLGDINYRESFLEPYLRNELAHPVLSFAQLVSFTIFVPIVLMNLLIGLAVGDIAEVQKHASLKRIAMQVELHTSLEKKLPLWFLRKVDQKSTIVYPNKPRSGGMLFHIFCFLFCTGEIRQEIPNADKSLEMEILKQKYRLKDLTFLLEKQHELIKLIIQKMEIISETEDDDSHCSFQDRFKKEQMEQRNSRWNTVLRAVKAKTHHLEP

C=CCN=C=S [AITC, Allylisothiocyanate]
inward current in hTRPA1-expressing cells (hTRPA1): evoked an inward current

NC(=NCc1ccccc1)NC(=O)c1nc(Cl)c(N)nc1N [Bz, benzamil]
inhibition of S3969 activity on αβγ hENaC-expressing cells (αβγ hENaC): No effect of S3969 was observed

Oc1cc2c(cc1O)CN(C(=S)NCCc1ccc(Cl)cc1)CCC2 [CPZ, capsazepine]
block of capsaicin- and NGCC-induced hTRPV1 activation (dose-response) (hTRPV1 [1]): blocked the effects of capsaicin and NGCC
block of NGCC-induced Ca2+ influx in hTRPV1-expressing cells (hTRPV1 [2]): blocked NGCC activity to baseline levels
block of capsaicin-induced current (hTRPV1 [3]; CPZ 1 µM preincubation 20 seconds, capsaicin 100 nM): blocked
normalized current density of NGCC-induced current after wash out of CPZ (hTRPV1 [3]; [4]): 0.61±0.12
normalized current density of NGCC-induced current under CPZ (hTRPV1 [3]; [4]): 0.12±0.05
